The text below walks through data of publication PMC8745332, “Synthesis, Molecular Docking and Biological Characterization of Pyrazine Linked 2-Aminobenzamides as New Class I Selective Histone Deacetylase (HDAC) Inhibitors with Anti-Leukemic Activity” (International Journal of Molecular Sciences, 2021).

SMILES strings stand for the structures. Read-outs that look alike come from different tables or passages of the source.

The target in assay [1] is T1, human HDAC1 (Homo sapiens, UniProt Q13547).
T1 construct: purchased ENZO Life Sciences AG (Lausen, CH)
Nature of the assay: In vitro HDAC1 inhibition assay, fluorogenic p53 peptide Ac-RHKK(Acetyl)-AMC. As to conditions: read-out: HDAC1 % inhibition @ 1 µM. The format is biochemical. The method, then:
(§1) Recombinant human HDAC1, HDAC2, and HDAC3/NCOR1 were purchased from ENZO Life Sciences AG (Lausen, CH). Recombinant human HDAC 4, HDAC5, HDAC7, HDAC9 and HDAC11 were produced by Barinka lab in Prague, as described before. Recombinant human HDAC8 was produced by Romier et al. (IGBMC, Univ. Strasbourg), as described in [55].
(§2) The in vitro testing on recombinant HDACs 1-3 were performed with a fluorogenic peptide derived from p53 (Ac-RHKK(Acetyl)-AMC). The measurements were performed in an assay buffer (50 mM Hepes, 150 mM NaCl, 5 mM MgCl2, 1 mM TCEP and 0.2 mg/mL BSA, pH 7.4 adjusted with NaOH) at 37 °C. Inhibitors at different concentrations were incubated with 10 nM HDAC1, 3 nM HDAC2 or 3 nM HDAC3 (final concentration) for at least 5 min. The reaction was started with the addition of the fluorogenic substrate (20 µM final concentration) and incubated for 30 min for HDAC2 and HDAC3 and 90 min for HDAC1. The reaction was stopped with a solution of 1 mg/mL trypsin and 20 µM SAHA in 1 mM HCl and incubated for 1 h at 37 °C. […] The received fluorescence intensities were normalized with uninhibited reaction as 100% and the reaction without enzyme as 0%. A nonlinear regression analysis was done to determine the IC50 value.

Assay [2] concerns the target T2, human HDAC2 (Homo sapiens, UniProt Q92769).
T2 construct: purchased ENZO Life Sciences AG (Lausen, CH)
Description: In vitro HDAC2 inhibition assay, fluorogenic p53 peptide Ac-RHKK(Acetyl)-AMC. The format is biochemical. As to conditions: read-out: HDAC2 % inhibition @ 1 µM. The method, then: as §1, §2

The target of assay [3] is T3, human HDAC3/NCOR1 (Homo sapiens, UniProt O15379).
T3 construct: purchased ENZO Life Sciences AG (Lausen, CH)
Description: In vitro HDAC3 inhibition assay, fluorogenic p53 peptide Ac-RHKK(Acetyl)-AMC. The format is biochemical. As to conditions: read-out: HDAC3 % inhibition @ 1 µM. Here is the method: as §1, §2

In assay [4] the test system is HDAC8. Details: method as in PMID 33362555, PMID 25874326, PMID 22080169, doi:10.1039/C4MD00350K, PMID 26640968. The settings on record: previously reported, Figure 1; cited from earlier work.
Assay [5] deals with HDAC1. The settings on record: read-out: IC50 (HDAC1); previously reported, Figure 1; cited from earlier work.
The subject of assay [6] is HDAC2. The settings on record: read-out: IC50 (HDAC2); previously reported, Figure 1; cited from earlier work.
Assay [7] has as its system HDAC3. The settings on record: read-out: IC50 (HDAC3), cited from earlier work.
For assay [8], the system named is MV4-11 cells. Nature of the assay: Apoptosis in MV4-11 cells, annexin-V-FITC/PI flow cytometry. The assay is classed as cell-based, human. The settings on record: Homo sapiens. The method, then: (§3) We measured the induction of early (increased exposure of phosphatidylserine on the cell surface and therefore positive staining for annexin-V-FITC) and late apoptosis (positivity for annexin-V and accumulation of propidium iodide, PI) by flow cytometry.
(§4) All leukemic cells were kept in RPMI-1640 medium supplemented with 10% FBS and 1%penicillin/streptomycin (Sigma-Aldrich, Taufkirchen, Germany) under standard culture conditions at 37 °C and a 5% CO2 humidified atmosphere. Cells were authenticated as mentioned by us.
On the technique in general: Flow cytometry measures light scatter and fluorescence of single cells or particles in a stream.

The test system of assay [9] is MOLM-13 cells. Description: Apoptosis in MOLM-13 cells, annexin-V/PI flow cytometry. The assay is classed as cell-based, human. As to conditions: Homo sapiens. Here is the method:
as §3, §4

Assay [10] deals with HEL cells. Description: Cytotoxicity/apoptosis in HEL cells expressing JAK2V617F, annexin V-FITC/PI flow cytometry. The format is cell-based, human. Here is the method:
(B) Cells were stained with annexin V-FITC/PI and analyzed via flow cytometry. […] IC50 values were determined for 19f. Results represent three independent experiments.
This erythroleukemia cell model carries a mutation in Janus kinase-2 (JAK2V617F) and HDACi are considered as therapeutic options to control the transformation of this disease into AML [53].
as §4

Assay [11] deals with HDAC4-8. Details: method as in PMID 33362555, PMID 25874326, PMID 17941625, PMID 27377864. As to conditions: previously reported, Figure 1; cited from earlier work.

T2 sequence (Q92769 whole entry): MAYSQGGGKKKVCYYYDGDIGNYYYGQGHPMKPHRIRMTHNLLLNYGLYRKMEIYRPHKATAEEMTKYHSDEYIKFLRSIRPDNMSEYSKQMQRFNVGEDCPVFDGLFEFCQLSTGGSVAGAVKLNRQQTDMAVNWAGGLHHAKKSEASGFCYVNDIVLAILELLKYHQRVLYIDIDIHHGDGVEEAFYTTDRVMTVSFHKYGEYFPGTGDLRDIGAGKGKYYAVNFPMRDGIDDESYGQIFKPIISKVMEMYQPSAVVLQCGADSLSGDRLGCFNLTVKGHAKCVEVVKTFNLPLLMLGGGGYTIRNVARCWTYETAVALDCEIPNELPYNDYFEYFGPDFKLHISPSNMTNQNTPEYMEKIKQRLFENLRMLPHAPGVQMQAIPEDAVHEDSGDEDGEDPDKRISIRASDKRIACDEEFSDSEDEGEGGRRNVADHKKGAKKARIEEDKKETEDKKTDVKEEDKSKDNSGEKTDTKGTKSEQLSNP
T3 sequence (O15379 whole entry): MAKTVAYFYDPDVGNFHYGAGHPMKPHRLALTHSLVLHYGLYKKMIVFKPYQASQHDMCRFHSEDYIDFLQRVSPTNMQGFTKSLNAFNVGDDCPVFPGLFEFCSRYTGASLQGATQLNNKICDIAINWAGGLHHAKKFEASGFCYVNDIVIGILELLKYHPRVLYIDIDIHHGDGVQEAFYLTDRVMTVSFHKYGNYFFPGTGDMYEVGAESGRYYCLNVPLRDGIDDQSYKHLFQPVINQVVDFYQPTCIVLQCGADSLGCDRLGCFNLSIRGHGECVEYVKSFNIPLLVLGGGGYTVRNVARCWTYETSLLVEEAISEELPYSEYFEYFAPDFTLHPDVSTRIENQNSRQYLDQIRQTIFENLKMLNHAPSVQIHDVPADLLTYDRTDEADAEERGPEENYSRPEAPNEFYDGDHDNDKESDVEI
T3 sequence (O75376 395-489 partner limits assumed): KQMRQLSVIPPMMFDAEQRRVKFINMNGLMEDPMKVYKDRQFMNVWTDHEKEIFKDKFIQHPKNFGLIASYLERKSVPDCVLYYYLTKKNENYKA
T1 sequence (Q13547 whole entry): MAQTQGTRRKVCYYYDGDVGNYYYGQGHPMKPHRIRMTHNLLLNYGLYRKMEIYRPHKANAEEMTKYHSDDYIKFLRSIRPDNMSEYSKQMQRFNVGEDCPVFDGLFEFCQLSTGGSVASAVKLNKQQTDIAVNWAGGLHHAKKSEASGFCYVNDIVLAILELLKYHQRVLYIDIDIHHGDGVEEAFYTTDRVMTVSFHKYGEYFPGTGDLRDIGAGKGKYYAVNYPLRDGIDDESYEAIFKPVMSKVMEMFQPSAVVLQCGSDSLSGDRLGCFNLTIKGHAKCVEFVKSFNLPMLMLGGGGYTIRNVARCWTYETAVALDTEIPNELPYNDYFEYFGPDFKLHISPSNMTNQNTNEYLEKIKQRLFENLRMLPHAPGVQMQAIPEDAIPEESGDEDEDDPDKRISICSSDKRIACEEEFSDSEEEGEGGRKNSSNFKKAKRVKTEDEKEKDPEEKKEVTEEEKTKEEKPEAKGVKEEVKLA

As for `CC(=O)Nc1ccc(C(=O)Nc2ccccc2N)cc1` [CI994, Tacedinaline], the inhibition (in general, how much of the control response was suppressed) at 1 µM in assay [1] came to 37%; in [2], 36%; in assay [3], 32%. The IC50 is […] in [4]; […] in [5]; […] in assay [6]; 1200 nM in [7] (previously reported, Figure 1).
As to `Nc1ccccc1NC(=O)c1ccc(CNC(=O)OCc2cccnc2)cc1` [MS-275, Entinostat, reference compound], the IC50 in assay [8] (MV4-11, 48 h, read-out: IC50 (apoptosis, annexin-V/PI)) was 692 nM; in assay [8] (MV4-11 cells, 24 h, annexin-V/PI, read-out: IC50 for apoptosis induction) it was 1310 nM; in [9] (MOLM-13, 48 h, read-out: IC50 (apoptosis, annexin-V/PI)), 318 nM; in assay [9] (MOLM-13 cells, 24 h, annexin-V/PI, read-out: IC50 for apoptosis induction) it was 1130 nM; in [10] (Homo sapiens, 0.25 µM to 5 µM, 24 h, read-out: IC50 for toxic effects on HEL cells), 4440 nM; in assay [4], […]. For the same compound, the IC50 is […] in assay [5] and […] in [6]. In [10] (0.5 µM, 48 h), the “apoptosis in HEL cell cultures” value is “did not cause apoptosis”.
Consider `Nc1ccccc1NC(=O)c1ccc(CNc2nccc(-c3cccnc3)n2)cc1` [Mocetinostat], for which the IC50 is greater than 10000 nM in assay [11], 150 nM in assay [5] and […] in assay [6].
On to `CC(=O)Nc1ccc(C(=O)Nc2ccc(F)cc2N)cc1` [BRD3308], for which the values for the IC50 in assay [5], in assay [6] and in [7] were 1080 nM, 1150 nM and 64 nM, respectively.
As for `CC(=O)Nc1ccc(C(=O)Nc2cc(-c3cccs3)ccc2N)cc1` [VIII], the IC50 in assay [11] was greater than 20000 nM; in [5] it was 10 nM; in assay [6] it was 56 nM; in assay [7], […].
For the compound `Nc1ccccc1NC(=O)c1cnccn1` [BG45], the values for the IC50 in [5], in [6] and in assay [7] were 2000 nM, 2200 nM and 289 nM, respectively.
